Assay results from US20170119034A1, “COMPOSITIONS AND METHODS FOR MODIFYING PERCEPTION OF SWEET TASTE” (University of Florida Research Foundation, Inc., priority 2012, published 2017).

Key:
[1] = system: tomato flavor intensity (consumer panel); assay: Tomato consumer taste panel: overall tomato flavor intensity (gLMS) versus fruit chemical content; assay type: in vivo, human
Experimental: (§1) Sensory analysis. Fully ripe fruit were harvested, and used for taste panels. A random subset of fruit was used for biochemical analysis. Three biological replicates, each consisting of 2-20 fruit (depending on fruit size), were assayed for each variety. […] Panelists were between the ages of 18 and 78 with a median age of 22. […] An average of 85 (range of 66-95) of these panelists evaluated between 4-6 varieties in a session. All panelists went through a training session to familiarize them with the scaling and procedures. Tomatoes were sliced into wedges (or in halves for grape/cherry types) and each panelist was given two pieces for evaluation. Panelists took a bite of each sample, chewed and swallowed it, and rated overall liking and liking for texture. They then rated the perceived intensities of sweetness, sourness, saltiness, umami sensation, bitterness and overall tomato flavor. They were free to take as many bites as necessary to complete the assessments. They were instructed to take a bite of an unsalted cracker and a sip of water between samples. Samples were presented to the panelists in a randomized order. Hedonic ratings used the hedonic gLMS. This scale assesses the liking for tomatoes in the context of all pleasure/displeasure experiences: 0=neutral, −100=strongest disliking of any kind experienced, and +100=strongest liking of any kind experienced. Sensory intensity ratings used the gLMS (7, 8, 19).This scale assesses taste and flavor sensations in the context of all sensory experience (7): 0=no sensation, 100=strongest sensation of any kind experienced. Both scales were devised to provide valid comparisons across subjects.
(§2) Statistical analysis. The 68 chemical compounds measured in this experiment were divided into six groups based upon biochemical properties: sugars, branched chain amino acids, lipids, carotenoids, phenolics, and acids. A small number of compounds for which biosynthetic pathways are not established were assigned to one of the six classes based upon their correlations with other classified compounds. All pairwise correlations among the set of 68 compounds were calculated. Correlation coefficients were sorted using Modulated Modularity Clustering (MMC) (9) as a visual aid for identifying compounds that are closely related in this sample (FIG. 1; Table 4). Biochemical groups were examined for compounds within the group that were highly correlated and compounds that were upstream in the relevant metabolic pathways were preferentially selected.
(§3) All analyses were performed in SAS v 9.2.

[2] = system: perceived sweetness of tomato fruit (consumer panel); settings: analysis of a volatile subset (Tieman 2012); cited from earlier work
[3] = system: perceived sweetness of tomato fruit (consumer panel); assay: Tomato consumer taste panel: perceived sweetness (gLMS) regressed on fruit chemical content; assay type: in vivo, human; settings: tomato
Experimental: as §1, §2, §3
In conducting the multiple regression analysis on the tomato data set, the independent variables were the sugar content (glucose+fructose), and the flavor (indicated by the retronasal perception of volatiles), while the dependent variable was the perceived sweetness.

[4] = system: perceived sourness of tomato fruit (consumer panel); assay: Tomato consumer taste panel: sourness intensity versus fruit chemical content; assay type: in vivo, human; settings: volatile-induced sourness independent of citric acid
Experimental: Sensory analysis. Fully ripe fruit were harvested, and used for taste panels. A random subset of fruit was used for biochemical analysis. Three biological replicates, each consisting of 2-20 fruit (depending on fruit size), were assayed for each variety. A group of 170 tomato consumers (64 male, 106 female) were recruited to evaluate all the varieties. Panelists were between the ages of 18 and 78 with a median age of 22. Panelists self-classified themselves as 101 White/Caucasian, 14 Black/African-American, 32 Asian/Pacific and […]. An average of 85 (range of 66-95) of these panelists evaluated between 4-6 varieties in a session. All panelists went through a training session to familiarize them with the scaling and procedures. Tomatoes were sliced into wedges (or in halves for grape/cherry types) and each panelist was given two pieces for evaluation. Panelists took a bite of each sample, chewed and swallowed it, and rated overall liking and liking for texture. They then rated the perceived intensities of sweetness, sourness, saltiness, umami sensation, bitterness and overall tomato flavor. They were free to take as many bites as necessary to complete the assessments. They were instructed to take a bite of an unsalted cracker and a sip of water between samples. Samples were presented to the panelists in a randomized order. Hedonic ratings used the hedonic gLMS. […]

CCC(C)C=O (centres unmarked) [2-methylbutanal]
association with flavor intensity after accounting for fructose ([1]; after accounting for fructose): independently significant after accounting for fructose
association with flavor intensity ([1]; univariate models): associated with flavor intensity in univariate models
enhancing sweetness intensity independent of fructose [2]: enhancing sweetness intensity independent of fructose
association with sweetness after accounting for fructose ([3]; after accounting for fructose): independent predictors of sweetness after accounting for fructose
correlation with sweetness ([3]; direction of correlation): negatively correlated with sweetness
contribution to perceived sweetness ([3]; multiple regression analysis using the volatiles): inhibitory effect
association with sweetness ([3]; univariate models): showed evidence for association with sweetness in univariate models
contribution to sourness [4]: contributed to this sourness
